# According to patent US9504692B2, “Selective inhibition of MALT1 protease by phenothiazine derivatives” (HELMHOLTZ ZENTRUM MUNCHEN, DEUTSCHES FORSCHUNGSZENTRUM FUR …, priority 2011, dated 2016):
# “Also recorded” adds a separate entry of the source. Read-outs that look alike come from different tables or passages of the source. *1 amine or outer side, *2 acyl side, *3 side chain or, on linkers, in order; H or OH if unused. Where a SMILES comes first, the peptide text is derived from it. [ ]: non-standard residue; d: D form. The star is where a group is joined. Sta = CC(C)C[C@H](N)[C@@H](O)CC(=O)O; Isovaleryl = CC(C)CC(=O)*; CO = O=C([*:1])[*:2]
# What was measured:
# AtMC9 = AtMC9 (Arabidopsis thaliana (Mouse-ear cress), UniProt Q9FYE1); conditions: cited from earlier work
# [1] = molecular target: recombinant full length (FL) GSTMALT1 (Homo sapiens (Human), UniProt Q9UDY8); assay: Recombinant GSTMALT1 cleavage assay with Ac-LRSR-AMC; assay type: biochemical
# Procedure: The MALT1 cleavage assay was used to screen ˜18000 small molecules of the ChemBioNet library at the Leibniz Institute for Molecular Pharmacology (FMP) in Berlin.^35 Screening volume was 11 μl in a 384-well non-binding assay plate (Corning) with […] GSTMALT1 against 10 μM final concentration of compounds. The assay was performed with 50 μM of Ac-LRSR-AMC substrate for 20 min at 30° C. As a negative control the recombinant MALT1 mutant C453A was used, as a medium inhibition control 1 nM of the Z-VRPR-FMK peptide.
# To screen for small molecular weight compounds that can inhibit MALT1 protease activity, recombinant GSTMALT1 was purified from E. coli to establish an in vitro protease cleavage assay suitable for high throughput screening (HTS). GSTMALT1 was incubated for 1 h at 30° C. in the presence of 50 μM of the tetrapeptide substrate Ac-LRSR-AMC, which is derived from the MALT1 cleavage site in the C-terminus of BCL10.^7 Proteolytic activity was determined by measuring the increase of fluorescence, which is emitted after cleavage and the accompanying release of the fluorophore AMC (FIGS. 1A and B). […] Similar to arginine-lysine specific metacaspases, the MALT1 protease has a high preference for cleaving after an arginine residue.
# AtMC4 = AtMC4 (Arabidopsis thaliana (Mouse-ear cress), UniProt O64517); conditions: cited from earlier work
# [2] = test system: GCB-DLBCL cell line Su-DHL-6; assay: Murine DLBCL xenogeneic tumor model, GCB-DLBCL Su-DHL-6; assay type: in vivo, NSG mice
# Procedure: (§1) (A) Transplantation of OCI-Ly10 or Su-DHL-6 cells resuspended in matrigel (BD) into the flanks of NOD.Cg-Prkdc^scid ll2rg^tm1Wjl/SzJ (NSG) mice was carried out on day 0. Tumor size was determined by caliper measurement. […] Apoptosis was determined on tumor sections by TUNEL staining after 22 days of treatment. Pictures show staining of representative tumor sections. […] Expression of RelB and the MALT1-dependent cleavage product RelBΔ were detected in extracts of OCI-Ly10 tumor specimens by Western Blotting after 22 days.
# (§2) For this purpose, the ABC-DLBCL cell line OCI-Ly10 and the GCB-DLBCL cell line Su-DHL-6 were injected as subcutaneous xenografts into NOD/scid IL-2Rg^null (NSG) mice (FIG. 8A). Both tumor cell lines were engrafted simultaneously on opposite flanks of individual mice.
# (§3) Transplanted tumors were removed at the end of the treatment period and apoptotic cells were visualized by TUNEL staining on sections of the tumor tissue (FIG. 8B).
# NF-κB = NF-κB DNA binding (EMSA) and NF-κB target proteins in ABC-DLBCL cells; assay type: cell-based; conditions: 10 and 20 μM
# GCB-DLBCL cells [3] = assay: Apoptosis by AnnexinV-PE/7-AAD FACS, GCB-DLBCL cells; assay type: cell-based; conditions: 15 μM, five days
# Procedure: (§4) Viability of DLBCL cell lines was analysed with a cell count assay of trypan blue stained cells after four days and by MTT (3-4,5-Dimethylthiazol-2-yl-2,5-diphenyltetrazoliumbromid) cytotoxicity test after two days of dose-dependent inhibitor treatment in comparison to DMSO treated control cells. The cell-dependent reduction of MTT to formazan was measured at λ=450 nm with a μQuant microplate spectrophotometer (Biotek). Apoptosis rates were determined with PE-Annexin V staining of 7AAD^− cells (BD Pharmingen) by FACS analysis (LSRII, BD) after five days of compound treatment. Data was analyzed using FlowJo software (Treestar).
# Jurkat T cells = assay: IL-2 secretion of Jurkat T cells (ELISA); assay type: cell-based, human; conditions: 5 and 10 μM; P/I or anti-CD3/CD28 for 20 h
# [4] = test system: GCB-DLBCL cell lines BJAB, Su-DHL-6 and Su-DHL-4; assay: MTT cytotoxicity test, GCB-DLBCL cells; assay type: cell-based; conditions: two days, single treatment, increasing concentrations
# Procedure: as §4
# (§5) Further, cell viability was determined by cell counting after 4 days of treatment (FIG. 7B, D and FIG. 12C).
# [5] = test system: primary murine CD4+ T-cells; assay: IL-2 mRNA (qPCR) and protein (ELISA) in primary murine CD4+ T cells; assay type: cell-based, mouse; conditions: 5 and 10 μM
# ABC-DLBCL cells [6] = assay: IL-6 and IL-10 secretion of ABC-DLBCL cells (ELISA); conditions: 20 h; ABC cell lines
# Procedure: Whole cell extracts, Western blotting and EMSA were performed as described previously.^9 Antibodies used were BCL-XL (Cell signaling), MALT1 (H300, B12), BCL10 (H197), c-FLIP (Alexis Biochemicals) and β-Actin (I-19). BCL10 cleavage was visualized after 20 h treatment of diffuse large B-cell lymphoma cells with different doses of PD.
# ABC-DLBCL cells [7] = assay: Apoptosis by AnnexinV-PE/7-AAD FACS, ABC-DLBCL cells; assay type: cell-based; conditions: 15 μM, five days
# Procedure: as §4
# [8] = test system: ABC-DLBCL cells HBL1, OCI-Ly3, U2932 and TMD8; assay: MTT cytotoxicity test, ABC-DLBCL cells; assay type: cell-based; conditions: two days, single treatment, increasing concentrations
# Procedure: as §4, §5
# primary human PBMCs = assay: IL-2 secretion of primary human PBMCs (ELISA); assay type: cell-based; conditions: 5 and 10 μM for 3 h; anti-CD3/CD28 20 h
# [9] = test system: ABC-DLBCL cell line OCI-Ly10; assay: Murine DLBCL xenogeneic tumor model, ABC-DLBCL OCI-Ly10; assay type: in vivo, NSG mice
# Procedure: as §1, §2, §3
# GCB-DLBCL cells [10] = assay: Viability by cell counting, GCB-DLBCL cells; assay type: cell-based; conditions: 4 days of treatment
# Procedure: as §4, §5
# ABC-DLBCL cells [11] = assay: Viability by cell counting, ABC-DLBCL cells; assay type: cell-based; conditions: 4 days of treatment
# Procedure: as §4, §5
# human recombinant CASP8 = human recombinant CASP8 (Homo sapiens (Human), UniProt Q14790); assay: CASP8 cleavage assay with Ac-DEVD-AMC; assay type: biochemical; conditions: 50 pM; picomolar concentrations
# Procedure: After incubation of 16 h at 4° C.
# [12] = daily i.p., mepazine 12 mg/kg or thioridazine 16 mg/kg, 22 days
# Chain of AtMC4 (O64517 whole entry): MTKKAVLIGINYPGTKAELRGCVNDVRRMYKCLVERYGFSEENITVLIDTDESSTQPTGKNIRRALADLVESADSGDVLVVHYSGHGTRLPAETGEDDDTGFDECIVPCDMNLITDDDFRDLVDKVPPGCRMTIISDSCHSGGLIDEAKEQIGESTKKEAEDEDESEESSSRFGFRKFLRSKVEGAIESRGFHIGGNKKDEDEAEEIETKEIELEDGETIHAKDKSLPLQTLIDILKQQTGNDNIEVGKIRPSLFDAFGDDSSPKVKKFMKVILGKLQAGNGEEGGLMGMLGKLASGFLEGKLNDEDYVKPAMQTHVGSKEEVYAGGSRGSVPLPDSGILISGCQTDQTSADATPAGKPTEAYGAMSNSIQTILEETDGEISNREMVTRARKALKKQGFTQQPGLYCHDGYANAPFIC
# Chain of recombinant full length (FL) GSTMALT1 (Q9UDY8 other isoform, or with tags, fused parts or gaps): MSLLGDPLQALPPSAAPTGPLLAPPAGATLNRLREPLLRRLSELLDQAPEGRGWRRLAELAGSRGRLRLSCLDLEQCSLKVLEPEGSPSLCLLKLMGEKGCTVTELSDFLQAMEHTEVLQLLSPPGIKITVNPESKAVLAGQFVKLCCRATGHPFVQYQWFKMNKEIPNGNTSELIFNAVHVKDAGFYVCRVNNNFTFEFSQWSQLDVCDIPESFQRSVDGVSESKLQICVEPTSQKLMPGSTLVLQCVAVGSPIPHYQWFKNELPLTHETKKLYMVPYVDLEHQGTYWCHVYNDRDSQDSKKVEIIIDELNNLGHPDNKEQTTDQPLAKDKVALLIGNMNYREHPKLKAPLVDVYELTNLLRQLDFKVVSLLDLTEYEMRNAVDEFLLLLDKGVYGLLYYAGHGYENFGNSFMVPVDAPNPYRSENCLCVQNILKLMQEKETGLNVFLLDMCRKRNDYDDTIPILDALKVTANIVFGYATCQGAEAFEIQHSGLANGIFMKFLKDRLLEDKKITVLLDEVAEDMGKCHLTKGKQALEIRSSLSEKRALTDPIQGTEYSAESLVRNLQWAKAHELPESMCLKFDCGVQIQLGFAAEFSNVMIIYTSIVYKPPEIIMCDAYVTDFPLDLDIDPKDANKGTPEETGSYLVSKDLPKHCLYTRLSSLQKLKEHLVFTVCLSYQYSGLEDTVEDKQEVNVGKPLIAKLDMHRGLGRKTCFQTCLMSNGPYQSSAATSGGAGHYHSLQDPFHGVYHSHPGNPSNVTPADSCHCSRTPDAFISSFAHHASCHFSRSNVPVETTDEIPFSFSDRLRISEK
# Chain of AtMC9 (Q9FYE1 whole entry): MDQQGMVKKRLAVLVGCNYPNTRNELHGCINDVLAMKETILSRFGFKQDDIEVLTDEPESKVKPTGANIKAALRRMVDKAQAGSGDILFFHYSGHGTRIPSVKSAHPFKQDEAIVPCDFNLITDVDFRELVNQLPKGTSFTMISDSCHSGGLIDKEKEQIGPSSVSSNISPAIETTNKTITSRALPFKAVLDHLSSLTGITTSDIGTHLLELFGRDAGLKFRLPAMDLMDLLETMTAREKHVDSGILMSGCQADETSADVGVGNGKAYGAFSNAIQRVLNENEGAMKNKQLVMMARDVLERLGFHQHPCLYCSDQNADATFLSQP
# Chain of human recombinant CASP8 (Q14790 217-374): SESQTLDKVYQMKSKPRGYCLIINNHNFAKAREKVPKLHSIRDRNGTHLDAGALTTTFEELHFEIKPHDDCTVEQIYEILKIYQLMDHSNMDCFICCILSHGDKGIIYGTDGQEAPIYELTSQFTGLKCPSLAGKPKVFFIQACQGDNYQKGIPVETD
# Chain of human recombinant CASP8 (Q14790 385-479): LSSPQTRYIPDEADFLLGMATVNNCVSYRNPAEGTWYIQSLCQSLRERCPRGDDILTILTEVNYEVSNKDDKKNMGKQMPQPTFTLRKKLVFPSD
molecule,measurement,setting,value
CC(C)[C@H](NC(=O)[C@H](CCCNC(=N)N)NC(=O)N[C@@H](Cc1ccccc1)C(=O)O)C(=O)N[C@H](C=O)CCCNC(=N)N [Antipain] ({Phe-CO}-Arg-Val-Arg-aldehyde),effect on AtMC9,AtMC9; 1 μM inhibitor,inhibited
same,effect on MALT1 activity,[1]; 1 μM inhibitor,diminished; also recorded: inhibited
same,effect on AtMC4,AtMC4; 1 μM inhibitor,inhibited
CC(C)C[C@H](NC(=O)[C@@H](NC(=O)N[C@@H](Cc1ccccc1)C(=O)O)[C@@H]1CCN=C(N)N1)C(=O)N[C@H](C=O)Cc1ccccc1 [Chymostatin],effect on AtMC9,AtMC9; 100 μM inhibitor,inhibited
same,effect on MALT1 activity,[1]; 100 μM inhibitor,diminished; also recorded: inhibited
same,effect on AtMC4,AtMC4; 100 μM inhibitor,inhibited
CC(C)C[C@H](NC(=O)[C@H]1O[C@@H]1C(=O)O)C(=O)NCCCCN=C(N)N [E-64],effect on AtMC9,AtMC9; 100 μM inhibitor,not AtMC9
same,effect on MALT1 activity,[1]; 100 μM inhibitor,does not inhibit MALT1
same,effect on AtMC4,AtMC4; 100 μM inhibitor,mild effect
CC(=O)N[C@@H](CC(C)C)C(=O)N[C@@H](CC(C)C)C(=O)N[C@H](C=O)CCCNC(=N)N [Leupeptin],effect on AtMC9,AtMC9; 1 μM inhibitor,acting stronger on plant metacaspases
same,effect on AtMC4,AtMC4; 1 μM inhibitor,acting stronger on plant metacaspases
CC(C)CC(=O)N[C@H](C(=O)N[C@H](C(=O)N[C@@H](CC(C)C)[C@@H](O)CC(=O)N[C@@H](C)C(=O)N[C@@H](CC(C)C)[C@@H](O)CC(=O)O)C(C)C)C(C)C [Pepstatin A] (Isovaleryl-VV[Sta]A[Sta]-OH),effect on MALT1 activity,[1]; 100 μM inhibitor,no effects
Cc1ccc(S(=O)(=O)NC(CCCCN)C(=O)CCl)cc1 (stereo not shown) [TLCK],effect on AtMC9,AtMC9; 1 μM inhibitor,strongly inhibits
same,effect on MALT1 activity,[1]; 1 μM inhibitor,no effects; also recorded: only mildly affecting MALT1 activity
same,effect on AtMC4,AtMC4; 1 μM inhibitor,much weaker
"CN1CCCC(CN2c3ccccc3Sc3ccccc32)C1 (stereo not shown) [mepazine, 10-[(1-methyl-3-piperidinyl)methyl]-10H-phenothiazine acetate]",apoptotic cells in tumor sections (TUNEL),[2]; after 22 days of treatment,no induction of apoptosis
same,tumor growth of Su-DHL-6 xenograft,[2]; [12],completely failed to exert any inhibitory effects
same,BCL-XL and FLIP-L protein levels,NF-κB; 20 h,dose-dependent decrease
same,NF-κB target DNA binding,NF-κB; 20 hours,reduced NF-κB target DNA binding
same,apoptotic rate,GCB-DLBCL cells [3],apoptosis was not increased
same,secreted IL-2 levels,Jurkat T cells,decrease of IL-2 levels
same,cell viability by MTT,[4],without significantly affecting GCB-DLBCL cells
same,IL-2 mRNA induction,"[5]; 3 h pre-treatment, anti-CD3/CD28 4 h",reduced in a dose-dependent manner
same,IL-2 protein expression,[5]; anti-CD3/CD28 20 h,reduced in a dose-dependent manner
same,decrease of IL-6 and IL-10 secretion,ABC-DLBCL cells [6],~50%
same,apoptotic rate,ABC-DLBCL cells [7],enhanced apoptotic rate
same,cell viability by MTT,[8],promoted a decrease of cell viability
same,IL-2 secretion,primary human PBMCs,significant decrease of IL-2 secretion
same,constitutive RelB cleavage in OCI-Ly10 tumor specimens,[9]; Western Blot after 22 days,impaired
same,apoptotic cells in tumor sections (TUNEL),[9]; after 22 days of treatment,increased the number of apoptotic cells
same,tumor growth of OCI-Ly10 xenograft,[9]; [12],strongly impaired the expansion
c1ccc2c(c1)Nc1ccccc1S2 [phenothiazine],inhibition of GSTMALT1 activity,"[1]; 1, 5 and 20 μM",inhibiting MALT1 activity in a dose-dependent manner
CC(CN1c2ccccc2Sc2ccccc21)N(C)C (stereo not shown) [promethazine],MALT1 inhibition,[1]; concentrations up to 20 μM,not inhibiting MALT1 protease activity; also recorded: did not cause any significant MALT1 inhibition
same,number of viable cells / viability,GCB-DLBCL cells [10],did not significantly inhibit viability
same,number of viable cells / viability,ABC-DLBCL cells [11],did not significantly inhibit viability
Ac-DEVD-CHO,CASP8 activity against Ac-DEVD-AMC,human recombinant CASP8,almost total decline of enzymatic activity; also recorded: effectively blocked CASP8 activity
same,effect on MALT1 activity,[1]; 200 μM inhibitor,not significantly active; also recorded: only marginally reduced MALT1 activity
Aprotinin,effect on MALT1 activity,[1]; 5 μg/ml inhibitor,no effects
Z-VRPR-FMK,decrease of MALT1 activity,"[1]; 1 nM inhibitor, 50 μM Ac-LRSR-AMC, 1 h at 30° C.",~50%
same,MALT1 cleavage activity with increasing amounts of inhibitor,"[1]; increasing amounts, low nanomolar concentrations",total loss of MALT1 activity; also recorded: completely blocked MALT1 cleavage activity
